Data as given in patent publication US20100249132A1, “IMIDAZOLE DERIVATIVES” (MERCK PATENT GESELLSCHAFT MIT BESCHRANKTER HAFTUNG, priority 2007, published 2010).
pIC50: −log10 of the molar value.

Each compound was assayed against T1, recombinant autotaxin (Homo sapiens, UniProt Q13822) (assay: Autotaxin test (enzyme test), Amplex Red fluorescence). Details: substrate LPC 75 μM, Amplex Red detection, read-out: IC50 (autotaxin inhibition, enzyme test).
T1 construct: made in house; host or cells: Hi5 insect cells (baculovirus)
Type: biochemical
Description: Autotaxin Inhibition (Enzyme Test)
Autotaxin Test (Enzyme Test)
The autotaxin activity is measured indirectly using Amplex Red reagent. Amplex Red is measured here as fluorogenic indicator for the H2O2 formed. In detail, autotaxin converts the substrate lysophosphatidylcholine (LPC) into phosphocholine and lysophosphatidylic acid (LPA). After this reaction, the phosphocholine is reacted with alkaline phosphatase to give inorganic phosphate and choline. In the next step, choline is oxidised by choline oxidase to give betaine, with formation of H2O2. H2O2 reacts with Amplex Red reagent in the presence of peroxidase (horseradish peroxidase) in a 1:1 stoichiometry and forms the highly fluorescent resorufin. The fluorescence is measured in a reaction-dependent kinetic mode in order that fluorescent signals from possible other fluorescent substances which are not involved in the reaction can be corrected out.
1.5 μl of a standard solution or of the test substances (substances with the name A(n)) in individual concentrations dissolved in 20 mM Hepes pH 7.2 with a maximum of 7.7% of DMSO are pre-incubated together with 10 μl (16 ng) of highly purified recombinant autotaxin in a black microtitre plate provided with 384 wells at 22° C. for 30 min. The reaction is then initiated by addition of 5 μl of L-α-lysophosphatidylcholine (LPC), where the final concentration of LPC is 75 μM. The mixture is incubated at 37° C. for 90 min. After the incubation, Amplex Red reagent, peroxidase (horseradish peroxidase) and choline oxidase is added, and the fluorescence is immediately measured at 612 nm with excitation of 485 nm in a “Tecan Ultra multimode” reader. The activity of autotaxin is calculated indirectly via detection of the H2O2 formed. • Material: • Microtitre plate: PS microplate, 384 wells, small volume, black Corning, Cat #3677 • Protein: recombinant autotaxin (Baculovirale Hi5 Expression) • Substrate: L-α-lysophosphatidylcholine (chicken egg)); Avanti Polar Lipids #830071 P • Standard: C14 LPA, Avanti Polar Lipids, Cat #857120P • Detection reagent: Amplex Red reagent; Invitrogen #A12222; dissolved in 1.923 ml of DMSO peroxidase type VI-A (horseradish) from Sigma #P6782; dissolved in 7.45 ml of test buffer, choline oxidase; Sigma #C5896; dissolved in 2.47 ml of test buffer • Detection reagent mix: 1:100 dilution of Amplex Red reagent in test buffer • Test buffer: 200 mM Tris HCl, Merck, Cat #1.08219, pH 7.9, 0.1% of BSA, lipid-free, Roche Cat #775835

Row | pIC50 | Compound
1 | < 5.00 | Cc1cc(NC(=O)Nc2[nH]c(Cc3ccc(C(=O)O)s3)nc2C(N)=O)ccc1F [Compound A73, 5-{4-Carbamoyl-5-[3-(4-fluoro-3-methylphenyl)-ureido]-1H-imidazol-2-ylmethyl}thiophene-2-carboxylic acid]
2 | 5.00 to 6.00 | NC(=O)c1nc(Cc2ccc(C(=O)O)o2)[nH]c1NC(=O)Nc1ccc(C(F)(F)F)cc1 [Compound A10, 5-{4-Carbamoyl-5-[3-(4-trifluoromethylphenyl)-ureido]-1H-imidazol-2-ylmethyl}furan-2-carboxylic acid]
3 | < 5.00 | Cc1oc(-c2ccccc2)cc1NC(=O)Nc1[nH]c(Cc2ccc(C(=O)O)cc2)nc1C(N)=O [Compound A101, 4-{4-Carbamoyl-5-[3-(2-methyl-5-phenylfuran-3-yl)ureido]-1H-imidazol-2-ylmethyl}benzoic acid]
4 | < 5.00 | CCCCc1ccc(NC(=O)Nc2[nH]c(Cc3ccc(C(=O)O)cc3)nc2C(N)=O)cc1 [Compound A3, 4-{5-[3-(4-Butylphenyl)ureido]-4-carbamoyl-1H-imidazol-2-ylmethyl}benzoic acid]
5 | 5.00 to 6.00 | NC(=O)c1nc(Cc2ccc(OCC(=O)O)cc2)[nH]c1NC(=O)Nc1ccc(C(F)(F)F)cc1 [Compound A38, (4-{4-Carbamoyl-5-[3-(4-trifluoromethylphenyl)-ureido]-1H-imidazol-2-ylmethyl}phenoxy)acetic acid]
6 | < 5.00 | NC(=O)c1nc(COc2ccc(CC(=O)O)cc2)[nH]c1NC(=O)Nc1ccc(F)c(C(F)(F)F)c1 [Compound A64, (4-{4-Carbamoyl-5-[3-(4-fluoro-3-trifluoromethyl-phenyl)ureido]-1 H-imidazol-2-ylmethoxy}phenyl)-acetic acid]
7 | < 5.00 | NC(=O)c1nc(COc2ccc(CC(=O)O)cc2)[nH]c1NC(=O)Nc1ccc(Cl)cc1 [Compound A59, (4-{4-Carbamoyl-5-[3-(4-chlorophenyl)ureido]-1H-imidazol-2-ylmethoxy}phenyl)acetic acid]
8 | < 5.00 | Cc1ccc(NC(=O)Nc2[nH]c(-c3ccc(OCC(=O)O)cc3)nc2C(N)=O)cc1 [Compound A53, {4-[4-Carbamoyl-5-(3-p-tolylureido)-1H-imidazol 2-yl]phenoxy}acetic acid]
9 | < 5.00 | CCCCc1ccc(NC(=O)Nc2[nH]c(Cc3ccc(C(=O)N4CCOCC4)o3)nc2C(N)=O)cc1 [Compound A83, 5-[3-(4-Butylphenyl)ureido]-2-[5-(morpholine-4-carbonyl)furan-2-ylmethyl]-1H-imidazole-4-carboxamide]
10 | < 5.00 | NC(=O)c1nc(Cc2ccc(C(=O)O)o2)[nH]c1NC(=O)Nc1ccc(Cl)c(C(F)(F)F)c1 [Compound A29, 5-{4-Carbamoyl-5-[3-(4-chloro-3-trifluoromethyl-phenyl)ureido]-1H-imidazol-2-ylmethyl}furan-2-carboxylic acid]
11 | 5.00 to 6.00 | Cc1ccc(NC(=O)Nc2[nH]c(Cc3ccc(C(=O)O)s3)nc2C(N)=O)c(C)c1 [Compound A71, 5-{4-Carbamoyl-5-[3-(2,4-dimethylphenyl)-ureido]-1H-imidazol-2-ylmethyl}thiophene-2-carboxylic acid]
12 | 5.00 to 6.00 | NC(=O)c1nc(Cc2ccc(C(=O)O)o2)[nH]c1NC(=O)Nc1ccc(Cl)cc1 [Compound A30, 5-{4-Carbamoyl-5-[3-(4-chlorophenyl)ureido]-1H-imidazol-2-ylmethyl}furan-2-carboxylic acid]
13 | < 5.00 | COc1cc(NC(=O)Nc2[nH]c(COc3ccc(CC(=O)O)cc3)nc2C(N)=O)cc(OC)c1 [Compound A63, (4-{4-Carbamoyl-5-[3-(3,5-dimethoxyphenyl)-ureido]-1H-imidazol-2-ylmethoxy}phenyl)acetic acid]
14 | < 5.00 | CCCCc1ccc(NC(=O)Nc2[nH]c(Cc3ccc(C(=O)N4CCC(C)CC4)o3)nc2C(N)=O)cc1 [Compound A87, 5-[3-(4-Butylphenyl)ureido]-2-[5-(4-methyl-piperidine-1-carbonyl)furan-2-ylmethyl]-1H-imidazole-4-carboxamide]
15 | < 5.00 | Cc1ccc(NC(=O)Nc2[nH]c(Cc3ccc(C(=O)O)o3)nc2C(N)=O)c(C)c1 [Compound A14, 5-{4-Carbamoyl-5-[3-(2,4-dimethylphenyl)-ureido]-1H-imidazol-2-ylmethyl}furan-2-carboxylic acid]
16 | 5.00 to 6.00 | CC(C)c1ccc(NC(=O)Nc2[nH]c(Cc3ccc(OCC(=O)O)cc3)nc2C(N)=O)cc1 [Compound A1, (4-{4-carbamoyl-5-[3-(4-isopropylphenyl)ureido]-1H-imidazol-2-ylmethyl}phenoxy)acetic acid]
17 | 5.00 to 6.00 | Cc1cc(Cl)ccc1NC(=O)Nc1[nH]c(Cc2ccc(C(=O)O)s2)nc1C(N)=O [Compound A74, 5-{4-Carbamoyl-5-[3-(4-chloro-2-methylphenyl)-ureido]-1H-imidazol-2-ylmethyl}thiophene-2-carboxylic acid]
18 | 5.00 to 6.00 | CCCCc1ccc(NC(=O)Nc2[nH]c(Cc3ccc(C(=O)N4CCOCC4)cc3)nc2C(N)=O)cc1 [Compound A94, 5-[3-(4-Butylphenyl)ureido]-2-[4-(morpholine-4-carbonyl)benzyl]-1H-imidazole-4-carboxamide]
19 | 5.00 to 6.00 | CC(C)c1ccc(NC(=O)Nc2[nH]c(Cc3ccc(C(=O)O)cc3)nc2C(N)=O)cc1 [Compound A2, 4-{4-Carbamoyl-5-[3-(4-isopropylphenyl)ureido]-1H-imidazol-2-ylmethyl}benzoic acid]
20 | < 5.00 | CCc1cccc(C)c1NC(=O)Nc1[nH]c(Cc2ccc(C(=O)O)o2)nc1C(N)=O [Compound A32, 5-{4-Carbamoyl-5-[3-(2-ethyl-6-methylphenyl)-ureido]-1H-imidazol-2-ylmethyl}furan-2-carboxylic acid]
21 | 5.00 to 6.00 | NC(=O)c1nc(Cc2ccc(C(=O)O)s2)[nH]c1NC(=O)Nc1ccc(C(F)(F)F)cc1 [Compound A66, 5-{4-Carbamoyl-5-[3-(4-trifluoromethylphenyl)-ureido]-1H-imidazol-2-ylmethyl}thiophene-2-carboxylic acid]
22 | < 5.00 | CCCCc1ccc(NC(=O)Nc2[nH]c(Cc3ccc(C(=O)N4CCCC4)o3)nc2C(N)=O)cc1 [Compound A81, 5-[3-(4-Butylphenyl)ureido]-2-[5-(pyrrolidine-1-carbonyl)furan-2-ylmethyl]-1H-imidazole-4-carboxamide]
23 | 5.00 to 6.00 | NC(=O)c1nc(-c2ccc(OCC(=O)O)cc2)[nH]c1NC(=O)Nc1ccc(C(F)(F)F)cc1 [Compound A50, (4-{4-Carbamoyl-5-[3-(4-trifluoromethylphenyl)-ureido]-1H-imidazol-2-yl}phenoxy)acetic acid]
24 | 5.00 to 6.00 | Cc1ccc(NC(=O)Nc2[nH]c(Cc3ccc(OCC(=O)O)cc3)nc2C(N)=O)cc1 [Compound A40, {4-[4-Carbamoyl-5-(3-p-tolylureido)-1H-imidazol 2-ylmethyl]phenoxy}acetic acid]
25 | 5.00 to 6.00 | CC(C)c1ccc(NC(=O)Nc2[nH]c(Cc3ccc(C(=O)O)s3)nc2C(N)=O)cc1 [Compound A68, 5-{4-Carbamoyl-5-[3-(4-isopropylphenyl)ureido]-1H-imidazol-2-ylmethyl}thiophene-2-carboxylic acid]
26 | 5.00 to 6.00 | NC(=O)c1nc(Cc2ccc(C(=O)O)o2)[nH]c1NC(=O)NCCc1ccccc1 [Compound A27, 5-[4-Carbamoyl-5-(3-phenethylureido)-1H-imidazol-2-ylmethyl]furan-2-carboxylic acid]
27 | 5.00 to 6.00 | NC(=O)c1nc(COc2ccc(CC(=O)O)cc2)[nH]c1NC(=O)Nc1ccc(C(F)(F)F)cc1 [Compound A56, (4-{4-Carbamoyl-5-[3-(4-trifluoromethylphenyl)-ureido]-1H-imidazol-2-ylmethoxy}phenyl)acetic acid]
28 | < 5.00 | Cc1ccc(NC(=O)Nc2[nH]c(COc3ccc(CC(=O)O)cc3)nc2C(N)=O)cc1 [Compound A58, {4-[4-Carbamoyl-5-(3-p-tolylureido)-1H-imidazol 2-ylmethoxy]phenyl}acetic acid]

Row | Compound | pIC50
29 | 5-[3-(4-Butylphenyl)ureido]-2-(5-cyclopropyl-carbamoylfuran-2-ylmethyl)-1H-imidazole-4-carboxamide [Compound A89] | < 5.00
30 | NC(=O)c1nc(CCC(=O)Nc2ccc3[nH]c(=O)oc3c2)[nH]c1NC(=O)Nc1ccc(Cl)cc1 [Compound B79] | < 5.00
31 | CCCCOc1ccc(NC(=O)Nc2[nH]c(Cc3ccc(C(=O)O)cc3)nc2C(N)=O)cc1 [Compound A9, 4-{5-[3-(4-Butoxyphenyl)ureido]-4-carbamoyl-1H-imidazol-2-ylmethyl}benzoic acid] | 5.00 to 6.00
